This is an account of results in patent US9340574B2, “Inhibitors of protein tyrosine phosphatases” (Indiana University Research and Technology Corporation, priority 2012, dated 2016).

Where only a bound is given, the exact number is not on record here.

Data set [1] concerns the target PTP-MEG2 (Homo sapiens (Human), UniProt P43378). Description: pNPP hydrolysis enzyme assay, PTP-MEG2. The format is biochemical. Here is the method: (§1) Enzyme kinetic assay. PTP activity was assayed using p-nitrophenyl phosphate (pNPP) as a substrate in 3,3-dimethylglutarate buffer (50 mM 3,3-dimethylglutarate, pH 7.0, 1 mM EDTA, 150 mM NaCl, 2 mM DTT, 0.1 mg/mL BSA) at 25° C. The assays were performed in 96-well plates. Normally, to determine the IC50 values, the reaction was initiated by the addition of enzyme (final concentration at 10 nM) to a reaction mixture (0.2 mL) containing 2 mM (Km for the substrate) pNPP with various concentrations of inhibitors. The reaction rate was measured using a SpectraMax Plus 384 Microplate Spectrophotometer (Molecular Devices). To determine the mode of inhibition, the reactions were initiated by the addition of PTP-MEG2 to the reaction mixtures (0.2 mL) containing various concentrations of pNPP with different concentrations of the inhibitor 7. Data were fitted using SigmaPlot Enzyme Kinetics Module (Systat Software, Inc.).
PTP-MEG2 Overexpression, and Purification. The expression vector containing residues 277-582 of PTP-MEG2 catalytic domain was provided by Stefan Knapp at the University of Oxford. For protein expression, transformed cells were grown at 37° C. in Luria broth (LB) containing […] ampicillin for 4 h to an OD600 nm @0.6, and then induced for overnight at 18° C. with 0.4 mM IPTG. Cells were harvested by centrifugation (6500 rpm for 15 min at 4° C.), and the cell pellets from 1.5 L LB medium were suspended in 30 mL of ice-cold lysis buffer consisting of 5 mM imidazole, 500 mM NaCl, 20 mM Tris-HCl (pH 7.9), 0.05 mg/mL trypsin inhibitor and 0.1 mM PMSF. The suspensions were passed twice through a French Press at 1200 psi, and the cell lysates were centrifuged at 4° C. for 30 min at 16,000 rpm. The supernatants were mixed with 2 mL Ni-NTA Agarose (His*Bind Resin) (Qiagen) at 4° C. for 1 hour, then transferred mixture to an empty column. The column was washed by 200 mL binding buffer (5 mM imidazole, 500 mM NaCl, 20 mM Tris-HCl (pH 7.9)), followed by 20 mL wash buffer (20 mM imidazole, 500 mM NaCl, 20 mM Tris-HCl (pH 7.9)), and then eluted with 20 mL elution buffer (200 mM imidazole, 500 mM NaCl, 20 mM Tris-HCl (pH 7.9), 5 mM DTT). The elution was dialyzed for 6 h at 4° C. against 1 L buffer A (50 mM NaCl, 20 mM MES (pH6.0), 1 mM EDTA), and then loaded onto a Mono S column equilibrated at 4° C. with buffer A. The column was washed with 10 ml buffer A and then eluted with a 40 mL linear gradient of 0 to 1M NaCl in buffer A. The PTP-MEG2 was eluted at 0.35 M NaCl. The column fractions were analyzed by measuring the absorbance at 280 nm and by carrying out SDS-PAGE analysis. The fractions were combined, dialyzed against 1 L buffer A and concentrated at 4° C. to 8 mg/mL using an Amicon concentrator and then stored at −80° C.

The target in data set [2] is PTP-MEG1 (Homo sapiens (Human), UniProt P29074). Briefly: pNPP hydrolysis enzyme assay, PTP-MEG1. It counts as biochemical. Here is the method: as §1
Data set [3] has as its target LAR (Homo sapiens (Human), UniProt P10586). Description: pNPP hydrolysis enzyme assay, LAR. It counts as biochemical. The procedure: as §1
The target of data set [4] is HePTP (Homo sapiens (Human), UniProt P35236). Description: pNPP hydrolysis enzyme assay, HePTP. It counts as biochemical. Here is the method:
as §1

In data set [5] the test system is HepG2 hepatocytes. Briefly: Insulin signaling in HepG2 hepatocytes. The format is cell-based. The following applies: HepG2, 1 hour pretreatment, 10 nM insulin 30 min. The procedure:
Cell lysate (20 μg protein) was subjected to 10% SDS-PAGE and probed with phospho-Akt, phospho-IR (Y1162/1163) or Akt antibody, respectively. […] Cell lysate (20 μg protein) was subjected to 10% SDS-PAGE and probed with phospho-IR(Y1162/1163), phospho-Akt (pS473) or total Akt antibody, respectively. […] Cell lysate (20 μg protein) or insulin receptor immunoprecipitation beads were subjected to 10% SDS-PAGE and probed with phospho-Akt, Akt, insulin receptor beta or phospho-tyrosine antibody (4G10), respectively. The non-specific band from insulin receptor immunoprecipitates served as a loading control for insulin receptor and phospho-insulin receptor.
Western blot analysis. Cells were homogenized in the lysis buffer (50 mM Hepes, pH 7.5, 150 mM NaCl, 10% Glycerol, 1% Triton X-100, 1.5 mM MgCl2, 1 mM EGTA, 10 μM Sodium Pyrophosphate, 100 mM sodium fluoride and freshly added 100 μM sodium vanadate, 1 mM PMSF, 10 μg/ml Aprotinin, and 10 μg/mL Leupeptin). Protein extracts were resolved on an SDS-PAGE gel and transferred to nitrocellulose membrane. […] Protein signals were detected by incubation with HRP-conjugated secondary antibodies, followed by ECL detection reagent (Pierce). Western blots were scanned and quantified using the Quantity One software (Bio-Rad).

For data set [6], the system named is diet-induced obese C57BL/6 mice. Description: Glucose tolerance test in diet-induced obese mice. To be noted: 5 mg/kg i.p. twice a day. The procedure: C57BL/6J mice were fed a high-fat diet for 10 weeks before Compound 7 or vehicle was injected intraperitoneally twice a day at a dose of 5 mg/kg body weight. FIG. 5A depicts insulin tolerance tests (ITT) performed on Day 7 by injecting intraperitoneally a bolus of 0.75 unit/kg of human regular insulin. […] FIG. 5C depicts glucose tolerance tests (GTT) carried out on Day 9 after a bolus of 1 g/kg glucose was injected intraperitoneally. […] FIG. 5E depicts pyruvate tolerance tests (PTT) performed on Day 12 after an injection of 2 g/kg pyruvate solution. […] At the end of 2-week injections of Compound 7, animals were fasted overnight and stimulated with a bolus of 1 unit of human regular insulin or saline via vena cava. Three minutes later, liver, skeletal muscle, and white adipose tissue (WAT) were collected sequentially for insulin signaling analysis. FIG. 5G depicts the phosphorylation of Tyr1162/1163 in insulin receptor (IR) and Ser473 phosphorylation in Akt kinases and the corresponding proteins in the liver, skeletal muscle, and white adipose tissue (WAT) were analyzed by immunoblots.
To this end, we intraperitoneally injected Compound 7 into diet-induced obese C57BL/6 mice at a dose of 5 mg/kg twice a day. […] After 7 days of injections, we performed insulin tolerance tests to measure insulin sensitivity in vehicle and Compound 7 treated mice.

PTP-MEG2, sequence (P43378 277-582): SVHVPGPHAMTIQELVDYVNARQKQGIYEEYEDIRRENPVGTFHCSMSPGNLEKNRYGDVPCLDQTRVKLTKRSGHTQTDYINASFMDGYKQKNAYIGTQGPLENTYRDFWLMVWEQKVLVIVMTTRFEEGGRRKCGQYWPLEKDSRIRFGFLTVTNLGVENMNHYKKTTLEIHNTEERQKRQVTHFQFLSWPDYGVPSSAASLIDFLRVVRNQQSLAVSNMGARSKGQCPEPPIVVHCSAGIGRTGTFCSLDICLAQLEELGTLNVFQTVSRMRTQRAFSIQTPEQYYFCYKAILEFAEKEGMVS
PTP-MEG1, sequence (P29074 whole entry): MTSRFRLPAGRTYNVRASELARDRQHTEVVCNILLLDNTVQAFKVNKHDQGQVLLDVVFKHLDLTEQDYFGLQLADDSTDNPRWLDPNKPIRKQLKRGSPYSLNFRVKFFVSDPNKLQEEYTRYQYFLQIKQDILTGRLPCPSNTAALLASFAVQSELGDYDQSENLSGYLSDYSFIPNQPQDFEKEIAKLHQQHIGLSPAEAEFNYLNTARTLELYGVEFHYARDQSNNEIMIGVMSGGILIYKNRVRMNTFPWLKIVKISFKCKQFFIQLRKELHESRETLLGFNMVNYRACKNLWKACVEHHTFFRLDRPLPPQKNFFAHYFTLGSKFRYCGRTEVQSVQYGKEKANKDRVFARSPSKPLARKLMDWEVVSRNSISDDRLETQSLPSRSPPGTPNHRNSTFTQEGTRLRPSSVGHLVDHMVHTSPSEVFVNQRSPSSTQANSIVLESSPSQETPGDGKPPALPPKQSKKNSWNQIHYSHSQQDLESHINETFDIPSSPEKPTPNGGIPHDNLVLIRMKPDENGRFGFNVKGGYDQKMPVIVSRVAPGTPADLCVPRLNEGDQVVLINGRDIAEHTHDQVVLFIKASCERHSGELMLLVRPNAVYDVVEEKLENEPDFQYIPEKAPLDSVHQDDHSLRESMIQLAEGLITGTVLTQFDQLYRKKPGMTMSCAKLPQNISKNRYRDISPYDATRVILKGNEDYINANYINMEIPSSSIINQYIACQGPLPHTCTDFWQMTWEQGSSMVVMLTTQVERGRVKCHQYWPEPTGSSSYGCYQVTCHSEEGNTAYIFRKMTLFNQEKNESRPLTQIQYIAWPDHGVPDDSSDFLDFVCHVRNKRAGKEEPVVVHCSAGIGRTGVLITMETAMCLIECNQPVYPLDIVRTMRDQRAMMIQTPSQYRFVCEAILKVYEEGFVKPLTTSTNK
LAR, sequence (P10586 whole entry, looked up, species assumed): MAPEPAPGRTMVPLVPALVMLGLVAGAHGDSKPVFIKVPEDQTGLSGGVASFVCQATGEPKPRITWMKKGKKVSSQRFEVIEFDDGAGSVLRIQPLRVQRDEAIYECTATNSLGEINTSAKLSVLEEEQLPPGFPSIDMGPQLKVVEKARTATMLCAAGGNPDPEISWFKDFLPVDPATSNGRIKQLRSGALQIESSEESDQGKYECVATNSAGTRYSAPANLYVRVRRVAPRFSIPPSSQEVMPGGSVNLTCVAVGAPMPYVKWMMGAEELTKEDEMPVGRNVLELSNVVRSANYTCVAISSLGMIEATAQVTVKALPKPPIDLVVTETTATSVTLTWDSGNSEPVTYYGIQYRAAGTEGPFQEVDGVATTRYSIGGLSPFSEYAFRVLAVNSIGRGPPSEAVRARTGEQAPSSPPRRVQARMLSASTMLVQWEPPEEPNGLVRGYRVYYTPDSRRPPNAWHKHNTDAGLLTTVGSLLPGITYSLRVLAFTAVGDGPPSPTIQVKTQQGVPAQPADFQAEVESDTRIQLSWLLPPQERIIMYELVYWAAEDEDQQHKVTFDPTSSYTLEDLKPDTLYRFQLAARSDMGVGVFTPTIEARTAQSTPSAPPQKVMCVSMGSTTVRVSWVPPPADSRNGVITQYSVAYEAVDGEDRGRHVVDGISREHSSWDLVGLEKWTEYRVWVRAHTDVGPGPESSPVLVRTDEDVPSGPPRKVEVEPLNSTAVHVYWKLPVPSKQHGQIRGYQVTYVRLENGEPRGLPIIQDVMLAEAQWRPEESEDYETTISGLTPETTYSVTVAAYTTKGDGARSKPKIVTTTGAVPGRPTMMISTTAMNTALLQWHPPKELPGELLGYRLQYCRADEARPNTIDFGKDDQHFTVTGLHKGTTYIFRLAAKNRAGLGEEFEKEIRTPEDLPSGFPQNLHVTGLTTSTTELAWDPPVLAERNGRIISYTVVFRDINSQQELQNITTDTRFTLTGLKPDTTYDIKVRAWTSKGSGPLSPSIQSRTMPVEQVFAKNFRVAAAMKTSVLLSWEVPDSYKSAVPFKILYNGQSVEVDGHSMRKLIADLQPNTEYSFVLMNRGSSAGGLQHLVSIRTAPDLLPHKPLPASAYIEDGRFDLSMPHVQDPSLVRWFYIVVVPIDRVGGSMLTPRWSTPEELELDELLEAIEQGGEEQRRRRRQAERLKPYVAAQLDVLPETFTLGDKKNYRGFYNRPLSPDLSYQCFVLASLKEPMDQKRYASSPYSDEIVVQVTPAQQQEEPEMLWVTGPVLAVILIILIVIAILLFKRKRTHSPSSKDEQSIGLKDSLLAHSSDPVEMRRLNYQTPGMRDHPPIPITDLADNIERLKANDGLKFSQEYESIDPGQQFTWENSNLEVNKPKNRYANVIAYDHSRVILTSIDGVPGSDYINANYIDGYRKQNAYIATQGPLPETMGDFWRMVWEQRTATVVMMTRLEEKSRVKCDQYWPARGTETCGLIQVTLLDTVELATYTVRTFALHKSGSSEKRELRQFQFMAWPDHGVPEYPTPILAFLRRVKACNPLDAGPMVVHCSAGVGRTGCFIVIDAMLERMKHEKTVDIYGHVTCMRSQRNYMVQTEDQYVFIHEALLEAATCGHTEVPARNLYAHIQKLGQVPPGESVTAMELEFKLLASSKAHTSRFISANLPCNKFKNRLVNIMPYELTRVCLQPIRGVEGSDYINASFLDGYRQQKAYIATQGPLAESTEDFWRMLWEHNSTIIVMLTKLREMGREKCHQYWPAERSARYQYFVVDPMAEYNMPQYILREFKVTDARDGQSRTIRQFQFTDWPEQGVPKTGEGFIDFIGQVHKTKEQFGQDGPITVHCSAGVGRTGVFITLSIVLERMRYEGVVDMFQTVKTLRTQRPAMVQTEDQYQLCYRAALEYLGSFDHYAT
HePTP, sequence (P35236 whole entry, species assumed): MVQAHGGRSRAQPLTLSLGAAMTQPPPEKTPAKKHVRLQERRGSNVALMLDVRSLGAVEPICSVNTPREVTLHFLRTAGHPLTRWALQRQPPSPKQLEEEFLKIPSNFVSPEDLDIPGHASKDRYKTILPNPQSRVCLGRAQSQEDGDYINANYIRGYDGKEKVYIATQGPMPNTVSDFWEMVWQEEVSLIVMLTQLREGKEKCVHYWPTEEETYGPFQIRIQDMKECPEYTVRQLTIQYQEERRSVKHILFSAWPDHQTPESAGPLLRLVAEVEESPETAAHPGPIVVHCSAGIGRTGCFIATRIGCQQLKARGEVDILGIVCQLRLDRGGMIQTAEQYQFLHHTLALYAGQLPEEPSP

Take `COc1cc(CC(=O)NCC(NC(=O)C(CCCNC(=O)c2cccc(I)c2)NC(=O)C(Cc2ccc(C(F)(F)P(=O)(O)O)cc2)NC(=O)c2ccc(C)c(Br)c2)C(N)=O)ccc1O` (stereo not shown) [Compound 7]: the “improvement in potency / binding affinity for PTP-MEG2 over the preceding lead” value in data set [1] (Compound 5 vs Compound 3, Compound 7 vs Compound 5) amounted to 3.6 fold. Further, the “mode of inhibition of PTP-MEG2” value in data set [1] (kinetic analysis) was “reversible and competitive inhibitor”. Also, in data set [1] (kinetic analysis, Lineweaver-Burk), the affinity, expressed as Ki, was 34 ± 2 nM. In addition, the IC50 (in general, the midpoint of a concentration-inhibition curve) in data set [1] (pNPP substrate, read-out: IC50 (nM) PTP-MEG2) is 75 ± 10 nM; in data set [2], greater than 10000 nM; in data set [3], greater than 10000 nM; in data set [4] it was greater than 10000 nM. Further, the “insulin signaling (phospho-IR, phospho-Akt)” value in data set [5] is “augmented insulin signaling”. Besides, in data set [6] (Day 9, at 15, 30, and 60 minutes), the “glucose clearance in glucose tolerance test” value is on record as “significantly enhanced glucose clearance”. Besides, the “improvement in glucose disposal (AUC)” value in data set [6] (Day 9, vs vehicle) stood at 21%.
